# Laboratory results as given in article PMC9822396 (Molecules, 2022).
# Like-named read-outs stand apart in the source and are kept apart here.
# Tests used:
# [1] = biological target: T1, BACE1 (Homo sapiens, UniProt P56817); test: BACE1 inhibition (fluorescent activity detection kit); type: biochemical; conditions: read-out: Residual Activity at 10 µM (%) BACE1
# T1 construct: purchased Sigma-Aldrich
# [2] = biological target: T2, BChE (Equus caballus, UniProt P81908); test: BChE inhibition (Ellman method); type: biochemical, equine; conditions: read-out: Residual Activity at 10 µM (%) BChE
# T2 construct: BChE from equine serum; purchased Sigma-Aldrich; host or cells: equine serum
# T2 sequence (P81908 whole entry): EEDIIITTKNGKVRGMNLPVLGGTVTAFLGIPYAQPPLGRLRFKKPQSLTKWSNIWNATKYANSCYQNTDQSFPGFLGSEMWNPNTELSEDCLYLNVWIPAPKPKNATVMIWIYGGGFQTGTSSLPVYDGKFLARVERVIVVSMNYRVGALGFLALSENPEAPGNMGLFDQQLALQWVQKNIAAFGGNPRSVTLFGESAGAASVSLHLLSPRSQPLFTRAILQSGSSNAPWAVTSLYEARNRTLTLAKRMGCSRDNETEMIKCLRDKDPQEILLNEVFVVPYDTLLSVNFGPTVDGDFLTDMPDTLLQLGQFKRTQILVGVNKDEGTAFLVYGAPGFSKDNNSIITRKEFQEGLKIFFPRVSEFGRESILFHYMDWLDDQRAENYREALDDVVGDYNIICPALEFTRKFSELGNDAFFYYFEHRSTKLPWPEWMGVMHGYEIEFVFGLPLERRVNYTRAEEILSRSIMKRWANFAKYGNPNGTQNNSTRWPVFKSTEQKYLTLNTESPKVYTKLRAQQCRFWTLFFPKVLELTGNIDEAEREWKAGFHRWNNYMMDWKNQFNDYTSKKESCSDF
# Protocol: (§1) All other chemicals were of reagent grade.
# (§2) hMAO-A and -B activities were determined using a continuous spectrophotometric method, as described previously. […] AChE and BChE activities were assayed as described by Ellman et al., with slight modification. Reactions were performed using AChE and BChE in the 0.5 mL reaction mixtures including 0.5 mM substrate (ATCI and BTCI, respectively) and color reagent (DTNB). […] Reaction rates are expressed as changes in absorbance per min.. Inhibitory activities of AChE and BChE were measured after preincubating enzyme with inhibitors for 15 min before adding DTNB and each substrate. […]
# [3] = biological target: T3, hMAO-A (Homo sapiens, UniProt P21397); test: biochemical; conditions: for remaining activity at 10 µM: read-out: Residual Activity at 10 µM (%) hMAO-A
# T3 construct: purchased Sigma-Aldrich
# T3 sequence (P21397 1-527): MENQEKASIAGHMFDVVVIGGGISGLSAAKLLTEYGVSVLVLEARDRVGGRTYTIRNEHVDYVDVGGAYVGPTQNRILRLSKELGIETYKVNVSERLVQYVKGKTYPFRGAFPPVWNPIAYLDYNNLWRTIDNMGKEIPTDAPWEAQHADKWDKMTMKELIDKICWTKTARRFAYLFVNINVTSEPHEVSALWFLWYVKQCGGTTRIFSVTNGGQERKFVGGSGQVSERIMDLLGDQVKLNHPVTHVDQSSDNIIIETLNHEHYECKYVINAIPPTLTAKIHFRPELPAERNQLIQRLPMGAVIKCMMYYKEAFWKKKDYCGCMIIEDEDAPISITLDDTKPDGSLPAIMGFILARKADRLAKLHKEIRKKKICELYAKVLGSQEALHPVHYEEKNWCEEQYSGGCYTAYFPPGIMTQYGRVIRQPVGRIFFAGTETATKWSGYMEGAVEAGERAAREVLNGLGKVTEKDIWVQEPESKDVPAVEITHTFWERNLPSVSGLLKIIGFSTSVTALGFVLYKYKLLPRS
# Protocol: as §1
# hMAO-A and -B activities were determined using a continuous spectrophotometric method, as described previously. […] AChE and BChE activities were assayed as described by Ellman et al., with slight modification. Reactions were performed using AChE and BChE in the 0.5 mL reaction mixtures including 0.5 mM substrate (ATCI and BTCI, respectively) and color reagent (DTNB). […] Reaction rates are expressed as changes in absorbance per min.. Inhibitory activities of AChE and BChE were measured after preincubating enzyme with inhibitors for 15 min before adding DTNB and each substrate.
# Inhibitory types and Ki values were determined using Lineweaver-Burk plots and secondary plots of their slopes, respectively.
# [4] = biological target: T4, hMAO-B (Homo sapiens, UniProt P27338); test: biochemical; type: biochemical; conditions: for SI: hMAO-B selectivity: IC50 of hMAO-A divided by IC50 of hMAO-B; for remaining activity at 10 µM: read-out: Residual Activity at 10 µM (%) hMAO-B
# T4 construct: purchased Sigma-Aldrich
# T4 sequence (P27338 1-520): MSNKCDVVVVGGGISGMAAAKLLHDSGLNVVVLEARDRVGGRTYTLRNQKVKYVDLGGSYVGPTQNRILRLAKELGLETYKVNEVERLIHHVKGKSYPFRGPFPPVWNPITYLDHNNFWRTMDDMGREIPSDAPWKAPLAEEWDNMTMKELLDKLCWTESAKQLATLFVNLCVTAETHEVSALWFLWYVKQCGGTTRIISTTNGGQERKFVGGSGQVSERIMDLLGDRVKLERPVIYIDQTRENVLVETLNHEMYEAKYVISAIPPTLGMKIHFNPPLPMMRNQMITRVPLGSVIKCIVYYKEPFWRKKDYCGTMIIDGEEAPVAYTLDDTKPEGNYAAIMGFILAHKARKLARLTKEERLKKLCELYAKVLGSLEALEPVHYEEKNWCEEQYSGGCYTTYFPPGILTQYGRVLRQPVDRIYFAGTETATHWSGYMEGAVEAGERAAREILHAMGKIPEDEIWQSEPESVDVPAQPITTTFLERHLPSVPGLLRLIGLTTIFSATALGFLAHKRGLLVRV
# Protocol: as §1, §2
# [5] = biological target: T5, AChE (Electrophorus electricus, UniProt O42275); test: AChE inhibition (Ellman method); type: biochemical; conditions: read-out: Residual Activity at 10 µM (%) AChE
# T5 construct: purchased Sigma-Aldrich
# T5 sequence (O42275 24-633): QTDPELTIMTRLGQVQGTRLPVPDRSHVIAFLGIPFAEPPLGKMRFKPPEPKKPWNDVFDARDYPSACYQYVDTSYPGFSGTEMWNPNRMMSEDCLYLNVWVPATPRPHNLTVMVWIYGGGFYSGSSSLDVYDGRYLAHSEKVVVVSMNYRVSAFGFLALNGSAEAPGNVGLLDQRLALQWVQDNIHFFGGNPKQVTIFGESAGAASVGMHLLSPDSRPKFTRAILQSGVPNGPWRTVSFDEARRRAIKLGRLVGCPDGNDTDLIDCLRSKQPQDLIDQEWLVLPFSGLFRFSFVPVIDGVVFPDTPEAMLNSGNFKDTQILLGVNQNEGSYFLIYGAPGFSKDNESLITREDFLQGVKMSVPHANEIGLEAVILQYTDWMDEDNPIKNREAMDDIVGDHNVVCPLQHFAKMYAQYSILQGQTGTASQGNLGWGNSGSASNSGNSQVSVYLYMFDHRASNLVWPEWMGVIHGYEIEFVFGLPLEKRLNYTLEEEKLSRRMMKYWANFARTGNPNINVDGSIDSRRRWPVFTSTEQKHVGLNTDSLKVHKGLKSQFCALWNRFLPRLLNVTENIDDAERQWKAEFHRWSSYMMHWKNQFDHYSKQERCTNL
# Protocol: as §1, §2
# [6] = biological target: T4, hMAO-B; conditions: read-out: hMAO-B inhibitory activity; cited from earlier work
# T1 sequence (P56817 46-501): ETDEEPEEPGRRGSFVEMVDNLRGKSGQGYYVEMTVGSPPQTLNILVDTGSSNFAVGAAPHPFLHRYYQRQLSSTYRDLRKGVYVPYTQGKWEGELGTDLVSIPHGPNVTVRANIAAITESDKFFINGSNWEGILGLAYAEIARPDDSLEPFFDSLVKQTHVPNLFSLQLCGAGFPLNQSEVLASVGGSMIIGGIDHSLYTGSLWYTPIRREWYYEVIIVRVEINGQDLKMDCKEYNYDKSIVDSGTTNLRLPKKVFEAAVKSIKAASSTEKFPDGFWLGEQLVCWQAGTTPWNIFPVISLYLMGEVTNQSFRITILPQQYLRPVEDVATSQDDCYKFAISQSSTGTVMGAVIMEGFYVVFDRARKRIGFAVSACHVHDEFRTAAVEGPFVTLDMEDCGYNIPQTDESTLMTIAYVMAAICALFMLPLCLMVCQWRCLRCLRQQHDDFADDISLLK
Structure (SMILES),remaining activity at 10 µM [1] [%],remaining activity at 10 µM [2] [%],IC50 [3] [µM],remaining activity at 10 µM [3] [%],IC50 [4] [µM],SI [4],remaining activity at 10 µM [4] [%],remaining activity at 10 µM [5] [%],IC50 [6] [µM],times lower MAO-B inhibition than compound 8 ([4]; ratio of IC50 values versus compound 8) [times]
"COc1cc(O)c2c(=O)c(-c3ccc(O)cc3)coc2c1 [Compound 9, prunetin]",87.73 ± 0.59,93 ± 0.65,2.49 ± 0.32,24.8 ± 1.22,5.18 ± 0.059,0.48,30.8 ± 0.82,83.2 ± 4.76,–,–
"COc1cc([C@H]2OC[C@H]3[C@@H]2CO[C@@H]3c2cc(OC)c(O[C@@H]3O[C@H](CO)[C@@H](O)[C@H](O)[C@H]3O)c(OC)c2)cc(OC)c1O [Compound 3, (–)-syringaresinol-4-O-β-D-glucopyranoside]",76.7 ± 4.92,98.9 ± 1.54,> 40,80 ± 2.02,> 40,–,93.6 ± 3.47,95.22 ± 0.08,–,–
"C[C@@H]1O[C@@H](OC[C@H]2O[C@@H](Oc3c(-c4ccc(O)c(O)c4)oc4cc(O)cc(O)c4c3=O)[C@H](O)[C@@H](O)[C@@H]2O)[C@H](O)[C@H](O)[C@H]1O [Compound 1, rutin]",82.6 ± 3.77,99.2 ± 0.88,> 40,96.8 ± 1.52,> 40,–,75.2 ± 6.76,92.4 ± 7.16,–,–
COc1ccc(-c2coc3cc(O)ccc3c2=O)cc1O [calycosin],–,–,–,–,–,–,–,–,0.24,–
"COc1cc2c(cc1O)O[C@H](c1ccccc1)[C@@H](O)C2=O [Compound 6, (2R,3R)-3,7-dihydroxy-6-methoxyflavanone]",95.72 ± 0.86,91.8 ± 1.35,> 40,94.8 ± 1.9,> 40,–,94.6 ± 4.21,84.3 ± 1.31,–,–
"COc1ccc2c(c1)OC[C@H]1c3cc4c(cc3O[C@@H]21)OCO4 [Compound 12, 3-methoxy-8,9-methylenedioxypterocarpan]",102.4 ± 0.4,93.6 ± 2.11,12.5 ± 0.33,60.3 ± 0.9,3.36 ± 0.09,3.72,13 ± 0.72,84.9 ± 0.61,–,7.47
"COc1cc(O)c2c(=O)c(-c3ccc(O)cc3O)coc2c1 [Compound 7, cajanin]",83.25 ± 0.45,86.9 ± 2.11,13.1 ± 0.23,56.9 ± 0.92,5.18 ± 0.11,2.53,31.6 ± 4.21,70.8 ± 7.2,–,–
"COc1cc2c(cc1O[C@@H]1O[C@H](CO)[C@@H](O)[C@H](O)[C@H]1O)O[C@H](c1ccccc1)[C@@H](O)C2=O [Compound 2, (2R,3R)-3-hydroxy-7-O-β-D-glucopyranoside-6-methoxyflavanone]",164 ± 2.96,97.5 ± 0.42,> 40,98.3 ± 2.01,> 40,–,69.6 ± 2.46,84.8,–,–
COc1ccc(-c2cc(=O)c3c(O)cc(OC)cc3o2)cc1 [acacetin 7-methyl ether],–,–,–,–,–,–,–,–,0.2,–
"COc1ccc(-c2coc3cc(O[C@@H]4O[C@H](CO)[C@@H](O)[C@H](O)[C@H]4O)ccc3c2=O)cc1 [Compound 4, ononin]",85.9 ± 0.08,96.7 ± 1.68,> 40,98.3 ± 1.64,28.5 ± 1.55,>1.40,63.5 ± 1.23,86.1 ± 1.79,–,–
"COc1ccc(-c2coc3cc(OC)ccc3c2=O)cc1 [Compound 11, 7,4′-dimethoxyisoflavone]",91.96 ± 0.59,98.7 ± 0.66,9.8 ± 0.27,49.1 ± 2.25,13.7 ± 0.1,0.72,62 ± 1.09,82.7 ± 5.44,–,–
"COc1cc(O)c2c(=O)c(-c3ccc(OC)c(O)c3)coc2c1 [Compound 10, 7,4′-dimethyl-3′-hydroxygenistein]",78.86 ± 0.56,98.1 ± 1.98,8.05 ± 0.1,41 ± 1.09,3.47 ± 0.055,2.32,16.9 ± 2.47,78.4 ± 3.4,–,–
"COc1cc([C@H]2OC[C@H]3[C@@H]2CO[C@@H]3c2cc(OC)c(O)c(OC)c2)cc(OC)c1O [Compound 5, (+)-syringaresinol]",81.7 ± 4.01,–,> 40,80.4 ± 6.57,24.3 ± 2.2,–,63.2 ± 6.24,–,–,–
